Measurements from paper PMC4522657, “Identification of a DYRK1A Inhibitor that Induces Degradation of the Target Kinase using Co-chaperone CDC37 fused with Luciferase nanoKAZ” (Scientific Reports, 2015).

Tests used:
Assay in all cases: Kinase panel, CaNDY 1 µM
Type in all cases: biochemical
Settings in all cases: CaNDY 1 µM relative to DMSO
ABL = target: T1, ABL (Homo sapiens, UniProt P00519)
T1 construct: purchased Carna Biosciences
How it was run: (§1)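 Inhibition values reflect the P/(P + substrate) ratio in treated versus compound-free wells, measured after electrophoretic separation. Assays ran for an hour at room temperature with DMSO held at 1%, using baculovirus-expressed, GST-tagged full-length human kinases.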

ACK = target: T2, ACK (Homo sapiens, UniProt Q07912)
T2 construct: purchased Carna Biosciences
How it was run: as §1

AKT2 = target: T3, AKT2 (Homo sapiens, UniProt P31751)
T3 construct: purchased Carna Biosciences
How it was run: as §1

ALK(F1174L) = target: T4, ALK(F1174L) (Homo sapiens, UniProt Q9UM73, F1174L)
T4 construct: purchased Carna Biosciences
How it was run: as §1

ALK(R1275Q) = target: T5, ALK(R1275Q) (Homo sapiens, UniProt Q9UM73, R1275Q)
T5 construct: purchased Carna Biosciences
How it was run: as §1

AMPKα1/β1/γ1 = target: T6, AMPKα1/β1/γ1 (Homo sapiens, UniProt Q13131)
T6 construct: purchased Carna Biosciences
How it was run: as §1

ARG = target: T7, ARG (Homo sapiens, UniProt P42684)
T7 construct: purchased Carna Biosciences
How it was run: as §1

CGK2 = target: T8, CGK2 (Homo sapiens, UniProt Q13237)
T8 construct: purchased Carna Biosciences
How it was run: as §1

CLK3 = target: T9, CLK3 (Homo sapiens, UniProt P49761)
T9 construct: purchased Carna Biosciences
How it was run: as §1

CaMK2α = target: T10, CaMK2α (Homo sapiens, UniProt Q9UQM7)
T10 construct: purchased Carna Biosciences
How it was run: as §1

EPHA4 = target: T11, EPHA4 (Homo sapiens, UniProt P54764)
T11 construct: purchased Carna Biosciences
How it was run: as §1

EPHB2 = target: T12, EPHB2 (Homo sapiens, UniProt P29323)
T12 construct: purchased Carna Biosciences
How it was run: as §1

FLT3 = target: T13, FLT3 (Homo sapiens, UniProt P36888)
T13 construct: purchased Carna Biosciences
How it was run: as §1

FLT4 = target: T14, FLT4 (Homo sapiens, UniProt P35916)
T14 construct: purchased Carna Biosciences
How it was run: as §1

FRK = target: T15, FRK (Homo sapiens, UniProt P42685)
T15 construct: purchased Carna Biosciences
How it was run: as §1

HIPK4 = target: T16, HIPK4 (Homo sapiens, UniProt Q8NE63)
T16 construct: purchased Carna Biosciences
How it was run: as §1

IGF1R = target: T17, IGF1R (Homo sapiens, UniProt P08069)
T17 construct: purchased Carna Biosciences
How it was run: as §1

JNK1 = target: T18, JNK1 (Homo sapiens, UniProt P45983)
T18 construct: purchased Carna Biosciences
How it was run: as §1

KIT(D816V) = target: T19, KIT(D816V) (Homo sapiens, UniProt P10721, D816V)
T19 construct: purchased Carna Biosciences
How it was run: as §1

LTK = target: T20, LTK (Homo sapiens, UniProt P29376)
T20 construct: purchased Carna Biosciences
How it was run: as §1

MSK2 = target: T21, MSK2 (Homo sapiens, UniProt O75676)
T21 construct: purchased Carna Biosciences
How it was run: as §1

MSSK1 = target: T22, MSSK1 (Homo sapiens, UniProt Q9UPE1)
T22 construct: purchased Carna Biosciences
How it was run: as §1

MST2 = target: T23, MST2 (Homo sapiens, UniProt Q13188)
T23 construct: purchased Carna Biosciences
How it was run: as §1

NDR1 = target: T24, NDR1 (Homo sapiens, UniProt Q15208)
T24 construct: purchased Carna Biosciences
How it was run: as §1

NEK1 = target: T25, NEK1 (Homo sapiens, UniProt Q96PY6)
T25 construct: purchased Carna Biosciences
How it was run: as §1

NEK7 = target: T26, NEK7 (Homo sapiens, UniProt Q8TDX7)
T26 construct: purchased Carna Biosciences
How it was run: as §1

NuaK2 = target: T27, NuaK2 (Homo sapiens, UniProt Q9H093)
T27 construct: purchased Carna Biosciences
How it was run: as §1

PDGFRα(V561D) = target: T28, PDGFRα(V561D) (Homo sapiens, UniProt P16234, V561D)
T28 construct: purchased Carna Biosciences
How it was run: as §1

PIM3 = target: T29, PIM3 (Homo sapiens, UniProt Q86V86)
T29 construct: purchased Carna Biosciences
How it was run: as §1

PKCε = target: T30, PKCε (Homo sapiens, UniProt Q02156)
T30 construct: purchased Carna Biosciences
How it was run: as §1

PLK3 = target: T31, PLK3 (Homo sapiens, UniProt Q9H4B4)
T31 construct: purchased Carna Biosciences
How it was run: as §1

PRKX = target: T32, PRKX (Homo sapiens, UniProt P51817)
T32 construct: purchased Carna Biosciences
How it was run: as §1

SRM = target: T33, SRM (Homo sapiens, UniProt Q9H3Y6)
T33 construct: purchased Carna Biosciences
How it was run: as §1

TRKB = target: T34, TRKB (Homo sapiens, UniProt Q16620)
T34 construct: purchased Carna Biosciences
How it was run: as §1

TYRO3 = target: T35, TYRO3 (Homo sapiens, UniProt Q06418)
T35 construct: purchased Carna Biosciences
How it was run: as §1

WNK2 = target: T36, WNK2 (Homo sapiens, UniProt Q9Y3S1)
T36 construct: purchased Carna Biosciences
How it was run: as §1

T25 sequence (Q96PY6 whole entry): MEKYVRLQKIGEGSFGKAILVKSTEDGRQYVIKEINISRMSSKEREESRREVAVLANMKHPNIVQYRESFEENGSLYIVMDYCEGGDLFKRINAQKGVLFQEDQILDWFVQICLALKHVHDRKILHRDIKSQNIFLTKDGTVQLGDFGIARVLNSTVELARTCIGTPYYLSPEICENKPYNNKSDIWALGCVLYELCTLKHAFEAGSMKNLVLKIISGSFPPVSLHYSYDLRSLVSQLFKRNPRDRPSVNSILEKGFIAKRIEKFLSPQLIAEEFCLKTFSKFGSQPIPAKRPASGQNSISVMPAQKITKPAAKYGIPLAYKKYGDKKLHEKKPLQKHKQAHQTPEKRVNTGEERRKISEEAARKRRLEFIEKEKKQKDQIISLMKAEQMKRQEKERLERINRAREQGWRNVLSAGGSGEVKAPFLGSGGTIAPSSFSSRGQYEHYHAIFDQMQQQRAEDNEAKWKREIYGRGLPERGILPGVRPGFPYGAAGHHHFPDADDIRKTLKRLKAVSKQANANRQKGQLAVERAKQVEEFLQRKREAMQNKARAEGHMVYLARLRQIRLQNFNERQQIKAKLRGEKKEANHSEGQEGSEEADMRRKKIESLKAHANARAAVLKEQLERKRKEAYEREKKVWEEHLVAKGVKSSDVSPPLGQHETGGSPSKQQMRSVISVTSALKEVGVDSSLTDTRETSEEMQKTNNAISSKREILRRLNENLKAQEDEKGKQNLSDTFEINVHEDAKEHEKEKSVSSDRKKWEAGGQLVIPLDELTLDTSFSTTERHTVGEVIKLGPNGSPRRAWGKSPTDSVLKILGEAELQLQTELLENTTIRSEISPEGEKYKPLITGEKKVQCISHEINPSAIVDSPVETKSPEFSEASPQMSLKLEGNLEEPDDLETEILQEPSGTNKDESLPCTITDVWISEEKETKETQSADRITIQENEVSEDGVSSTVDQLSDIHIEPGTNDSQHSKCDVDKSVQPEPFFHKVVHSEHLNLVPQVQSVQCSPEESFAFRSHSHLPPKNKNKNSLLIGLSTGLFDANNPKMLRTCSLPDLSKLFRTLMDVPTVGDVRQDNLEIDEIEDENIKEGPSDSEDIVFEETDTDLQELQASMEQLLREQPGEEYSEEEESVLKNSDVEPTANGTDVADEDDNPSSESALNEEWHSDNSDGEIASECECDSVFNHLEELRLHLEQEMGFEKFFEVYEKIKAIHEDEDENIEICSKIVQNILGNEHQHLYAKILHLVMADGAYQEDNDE
T14 sequence (P35916 25-1363): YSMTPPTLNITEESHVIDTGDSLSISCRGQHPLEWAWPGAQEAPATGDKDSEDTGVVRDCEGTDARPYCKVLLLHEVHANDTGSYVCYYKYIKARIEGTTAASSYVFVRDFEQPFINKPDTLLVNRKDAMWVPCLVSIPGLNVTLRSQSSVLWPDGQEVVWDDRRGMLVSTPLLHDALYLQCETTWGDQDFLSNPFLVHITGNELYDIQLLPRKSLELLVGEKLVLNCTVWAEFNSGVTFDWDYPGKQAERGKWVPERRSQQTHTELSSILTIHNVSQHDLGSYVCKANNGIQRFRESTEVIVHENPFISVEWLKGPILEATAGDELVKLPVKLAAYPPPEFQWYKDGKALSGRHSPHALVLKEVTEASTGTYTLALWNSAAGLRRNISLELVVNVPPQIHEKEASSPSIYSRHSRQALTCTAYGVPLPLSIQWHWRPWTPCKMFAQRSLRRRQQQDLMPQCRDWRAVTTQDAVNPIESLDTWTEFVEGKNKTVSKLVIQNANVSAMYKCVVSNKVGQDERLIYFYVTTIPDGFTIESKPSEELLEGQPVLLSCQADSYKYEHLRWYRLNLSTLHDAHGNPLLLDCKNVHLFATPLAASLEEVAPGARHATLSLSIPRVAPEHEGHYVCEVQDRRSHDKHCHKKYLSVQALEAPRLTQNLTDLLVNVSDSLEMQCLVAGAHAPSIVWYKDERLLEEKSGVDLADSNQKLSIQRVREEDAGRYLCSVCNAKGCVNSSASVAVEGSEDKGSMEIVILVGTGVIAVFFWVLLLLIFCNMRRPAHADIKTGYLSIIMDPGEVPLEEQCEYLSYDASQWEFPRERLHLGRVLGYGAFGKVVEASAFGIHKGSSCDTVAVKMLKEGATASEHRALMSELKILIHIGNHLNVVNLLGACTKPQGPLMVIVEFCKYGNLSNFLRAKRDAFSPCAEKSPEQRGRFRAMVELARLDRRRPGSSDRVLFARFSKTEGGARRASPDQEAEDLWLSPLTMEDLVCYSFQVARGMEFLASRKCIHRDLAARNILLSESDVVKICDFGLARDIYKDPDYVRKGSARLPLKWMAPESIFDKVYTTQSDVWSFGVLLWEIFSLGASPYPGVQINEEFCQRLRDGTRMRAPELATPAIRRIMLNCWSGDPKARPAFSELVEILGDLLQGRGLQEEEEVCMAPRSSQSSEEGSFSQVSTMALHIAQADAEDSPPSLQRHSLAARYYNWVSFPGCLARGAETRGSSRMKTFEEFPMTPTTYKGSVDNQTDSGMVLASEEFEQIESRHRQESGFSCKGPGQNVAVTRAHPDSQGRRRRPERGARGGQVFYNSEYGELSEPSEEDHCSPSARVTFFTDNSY
T17 sequence (P08069 31-1367): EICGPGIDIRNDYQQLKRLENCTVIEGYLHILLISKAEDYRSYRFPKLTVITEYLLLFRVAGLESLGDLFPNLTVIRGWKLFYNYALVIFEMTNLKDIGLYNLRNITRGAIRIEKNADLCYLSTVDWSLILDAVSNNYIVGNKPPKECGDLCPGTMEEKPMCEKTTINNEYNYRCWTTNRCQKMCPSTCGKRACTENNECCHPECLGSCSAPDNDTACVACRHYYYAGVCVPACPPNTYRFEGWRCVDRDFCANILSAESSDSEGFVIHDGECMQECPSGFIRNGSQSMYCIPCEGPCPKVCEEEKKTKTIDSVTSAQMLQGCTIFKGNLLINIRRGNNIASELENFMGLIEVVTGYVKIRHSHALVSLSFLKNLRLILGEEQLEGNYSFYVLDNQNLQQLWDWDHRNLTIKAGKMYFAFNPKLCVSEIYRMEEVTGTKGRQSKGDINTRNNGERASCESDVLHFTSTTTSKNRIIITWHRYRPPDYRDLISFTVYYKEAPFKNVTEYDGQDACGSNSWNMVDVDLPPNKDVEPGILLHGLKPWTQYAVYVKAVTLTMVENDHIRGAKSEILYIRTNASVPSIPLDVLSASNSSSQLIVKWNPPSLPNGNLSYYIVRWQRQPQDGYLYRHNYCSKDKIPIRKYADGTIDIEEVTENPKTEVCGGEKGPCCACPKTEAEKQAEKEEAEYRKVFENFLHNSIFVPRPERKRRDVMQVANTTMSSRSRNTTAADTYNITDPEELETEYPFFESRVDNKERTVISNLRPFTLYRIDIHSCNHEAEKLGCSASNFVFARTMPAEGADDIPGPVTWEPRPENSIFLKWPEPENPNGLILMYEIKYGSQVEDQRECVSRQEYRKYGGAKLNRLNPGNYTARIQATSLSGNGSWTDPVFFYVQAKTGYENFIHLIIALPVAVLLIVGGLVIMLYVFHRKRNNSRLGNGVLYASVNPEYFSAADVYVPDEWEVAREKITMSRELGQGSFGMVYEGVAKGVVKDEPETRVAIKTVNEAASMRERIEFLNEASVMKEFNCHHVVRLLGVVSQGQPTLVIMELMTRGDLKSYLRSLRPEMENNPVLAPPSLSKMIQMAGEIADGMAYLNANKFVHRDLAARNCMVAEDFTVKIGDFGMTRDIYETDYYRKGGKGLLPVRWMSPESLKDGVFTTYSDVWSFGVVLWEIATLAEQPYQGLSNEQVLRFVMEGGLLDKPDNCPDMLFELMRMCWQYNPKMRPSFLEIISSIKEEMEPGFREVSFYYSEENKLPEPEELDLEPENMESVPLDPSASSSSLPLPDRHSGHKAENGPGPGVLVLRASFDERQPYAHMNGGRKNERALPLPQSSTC
T11 sequence (P54764 20-986): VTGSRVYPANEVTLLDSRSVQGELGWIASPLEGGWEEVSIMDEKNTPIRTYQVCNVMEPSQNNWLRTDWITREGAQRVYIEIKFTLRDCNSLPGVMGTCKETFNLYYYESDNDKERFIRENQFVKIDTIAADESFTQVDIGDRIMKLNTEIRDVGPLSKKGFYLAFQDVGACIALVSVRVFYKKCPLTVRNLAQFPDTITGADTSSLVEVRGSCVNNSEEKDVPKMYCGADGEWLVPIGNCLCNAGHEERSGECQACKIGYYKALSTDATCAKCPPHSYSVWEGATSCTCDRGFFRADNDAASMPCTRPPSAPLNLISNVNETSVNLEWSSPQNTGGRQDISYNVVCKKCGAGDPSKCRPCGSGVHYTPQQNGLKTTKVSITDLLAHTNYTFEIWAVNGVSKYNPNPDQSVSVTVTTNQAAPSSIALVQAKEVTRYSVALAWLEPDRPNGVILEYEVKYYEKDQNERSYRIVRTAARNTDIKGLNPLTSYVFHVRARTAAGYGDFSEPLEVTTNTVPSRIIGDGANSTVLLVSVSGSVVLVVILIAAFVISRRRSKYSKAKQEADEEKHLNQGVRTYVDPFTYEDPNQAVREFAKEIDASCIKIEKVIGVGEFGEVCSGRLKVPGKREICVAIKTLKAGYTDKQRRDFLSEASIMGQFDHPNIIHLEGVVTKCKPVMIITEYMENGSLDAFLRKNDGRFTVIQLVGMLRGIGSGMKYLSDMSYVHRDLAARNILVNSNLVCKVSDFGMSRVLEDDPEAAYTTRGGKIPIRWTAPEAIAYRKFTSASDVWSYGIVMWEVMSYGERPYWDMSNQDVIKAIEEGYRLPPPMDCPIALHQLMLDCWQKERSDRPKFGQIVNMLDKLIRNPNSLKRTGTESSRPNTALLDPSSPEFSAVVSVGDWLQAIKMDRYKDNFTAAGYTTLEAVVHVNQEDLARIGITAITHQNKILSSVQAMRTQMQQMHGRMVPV

[H]/N=C1/NC(=O)C(=Cc2ccc3c(c2)CCO3)S1 [CaNDY, (Z)-5-[(2,3-dihydrobenzofuran-5-yl)methylene]-2-iminothiazolidin-4-one]
remaining activity at 1 µM (ABL): 103% | remaining activity at 1 µM (ACK): 108% | remaining activity at 1 µM (AKT2): 105% | remaining activity at 1 µM (ALK(F1174L)): 97.9% | remaining activity at 1 µM (ALK(R1275Q)): 98.5% | remaining activity at 1 µM (AMPKα1/β1/γ1): 91.9% | remaining activity at 1 µM (ARG): 98.8% | remaining activity at 1 µM (CGK2): 71.1% | %Activity (CLK3): 16.5% | remaining activity at 1 µM (CaMK2α): 104% | remaining activity at 1 µM (EPHA4): 102% | %Activity (EPHB2): 99.8% | remaining activity at 1 µM (FLT3): 101% | remaining activity at 1 µM (FLT4): 103% | remaining activity at 1 µM (FRK): 102% | remaining activity at 1 µM (HIPK4): 78.2% | remaining activity at 1 µM (IGF1R): 101% | %Activity (JNK1): 102.4% | remaining activity at 1 µM (KIT(D816V)): 92.2% | remaining activity at 1 µM (LTK): 96.9% | remaining activity at 1 µM (MSK2): 98.3% | remaining activity at 1 µM (MSSK1): 98% | remaining activity at 1 µM (MST2): 103% | remaining activity at 1 µM (NDR1): 91.8% | remaining activity at 1 µM (NEK1): 95.6% | remaining activity at 1 µM (NEK7): 102% | %Activity (NuaK2): 98.1% | remaining activity at 1 µM (PDGFRα(V561D)): 90.3% | remaining activity at 1 µM (PIM3): 41.4% | remaining activity at 1 µM (PKCε): 91.9% | remaining activity at 1 µM (PLK3): 95.9% | remaining activity at 1 µM (PRKX): 97.6% | remaining activity at 1 µM (SRM): 77% | remaining activity at 1 µM (TRKB): 101% | remaining activity at 1 µM (TYRO3): 104% | remaining activity at 1 µM (WNK2): 101%
